SMILES strings stand for the structures.

Sequence of ROCK2 (O75116 11-552): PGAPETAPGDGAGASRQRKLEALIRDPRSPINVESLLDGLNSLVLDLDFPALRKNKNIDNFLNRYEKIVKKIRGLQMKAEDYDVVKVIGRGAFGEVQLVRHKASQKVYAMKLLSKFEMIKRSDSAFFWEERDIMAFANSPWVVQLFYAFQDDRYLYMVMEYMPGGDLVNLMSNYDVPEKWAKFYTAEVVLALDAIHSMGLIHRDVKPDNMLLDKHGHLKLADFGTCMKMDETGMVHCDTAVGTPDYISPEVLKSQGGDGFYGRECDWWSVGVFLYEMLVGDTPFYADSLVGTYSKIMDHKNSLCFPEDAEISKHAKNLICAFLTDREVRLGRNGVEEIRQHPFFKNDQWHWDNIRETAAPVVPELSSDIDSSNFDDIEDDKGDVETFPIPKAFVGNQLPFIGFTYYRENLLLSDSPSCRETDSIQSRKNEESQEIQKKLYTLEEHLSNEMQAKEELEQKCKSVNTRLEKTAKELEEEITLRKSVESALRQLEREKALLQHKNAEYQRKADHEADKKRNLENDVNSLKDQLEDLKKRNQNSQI

The assay has as its target ROCK2 (Homo sapiens (Human), UniProt O75116). The assay can be described thus: Rho Kinase Inhibition Assay (IMAP fluorescence polarization). The assay is classed as biochemical. As to conditions: isolated enzyme, 10 μM ATP, 60 minutes at room temperature. A general note: Polarisation of emitted light reports the rotation of a fluorescent probe.
By IC50 is commonly meant the midpoint of a concentration-inhibition curve. `c1cc(NC2CCCN(Cc3ccc(C4CC4)cc3)C2)c2ccncc2c1` (stereo not shown) [Compound 2.010, N-(1-(4-cyclopropylbenzyl)piperidin-3-yl)isoquinolin-5-amine]: the IC50 is 1240 nM. In other words, the single-digit micromolar range. `c1cc(CN2CCCC(Nc3cccc4cnccc34)C2)cc(C2CC2)c1` (stereo not shown) [Compound 2.011, N-(1-(3-cyclopropylbenzyl)piperidin-3-yl)isoquinolin-5-amine] had an IC50 of 4090 nM. With `c1cc(NC2CCCN(Cc3ccc(SC4CC4)cc3)C2)c2ccncc2c1` (stereo not shown) [Compound 2.012, N-(1-(4-(cyclopropylthio)benzyl)piperidin-3-yl)isoquinolin-5-amine] the figure was 14900 nM. With `c1ccc(CN2CCCC(Nc3cccc4cnccc34)CC2)cc1` (stereo not shown) [Compound 2.013, N-(1-benzylazepan-4-yl)isoquinolin-5-amine] the figure was 1490 nM; with `Clc1ccc(CN2CCCC(Nc3cccc4cnccc34)C2)cc1Cl` (stereo not shown) [Compound 2.014, N-(1-(3,4-dichlorobenzyl)piperidin-3-yl)isoquinolin-5-amine], 1670 nM. With `FC(F)(F)c1cccc(CN2CCCC(Nc3cccc4cnccc34)C2)c1` (stereo not shown) [Compound 2.015, N-(1-(3-(trifluoromethyl)benzyl)piperidin-3-yl)isoquinolin-5-amine] the figure was 4190 nM; with `Clc1ccc(CN2CCC(Nc3cccc4cnccc34)C2)cc1Cl` (stereo not shown) [Compound 2.016, N-(1-(3,4-dichlorobenzyl)pyrrolidin-3-yl)isoquinolin-5-amine], 716 nM; with `COc1ccc(CN2CCC(Nc3cccc4cnccc34)C2)cc1` (stereo not shown) [Compound 2.017, N-(1-(4-methoxybenzyl)pyrrolidin-3-yl)isoquinolin-5-amine], 322 nM.

With `FC(F)(F)c1cccc(CN2CCC(Nc3cccc4cnccc34)C2)c1` (stereo not shown) [Compound 2.018, N-(1-(3-(trifluoromethyl)benzyl)pyrrolidin-3-yl)isoquinolin-5-amine], the IC50 was 632 nM.

`c1cc(N[C@H]2CCN(Cc3ccc(C4CC4)cc3)C2)c2ccncc2c1` [Compound 2.019, (S)-N-(1-(4-cyclopropylbenzyl)pyrrolidin-3-yl)isoquinolin-5-amine] came in with an IC50 of 4080 nM. The compound `c1cc(CN2CC[C@@H](Nc3cccc4cnccc34)C2)cc(C2CC2)c1` [Compound 2.020, (R)-N-(1-(3-cyclopropylbenzyl)pyrrolidin-3-yl)isoquinolin-5-amine] yielded an IC50 of 820 nM. This IC50 lies about 5-fold lower than the previous one.

On to `c1cc(N[C@@H]2CCN(Cc3ccc(SC4CC4)cc3)C2)c2ccncc2c1` [Compound 2.021, (R)-N-(1-(4-(cyclopropylthio)benzyl)pyrrolidin-3-yl)isoquinolin-5-amine], for which half-maximal inhibition (IC50) was put at 1900 nM. The figure for `c1cc(N[C@@H]2CCN(Cc3ccc(C4CC4)cc3)C2)c2ccncc2c1` [Compound 2.022, (R)-N-(1-(4-cyclopropylbenzyl)pyrrolidin-3-yl)isoquinolin-5-amine] is 311 nM; for `c1cc(CN2CC[C@H](Nc3cccc4cnccc34)C2)cc(C2CC2)c1` [Compound 2.023, (S)-N-(1-(3-cyclopropylbenzyl)pyrrolidin-3-yl)isoquinolin-5-amine] it is 15700 nM; for `c1cc(N[C@H]2CCN(Cc3ccc(SC4CC4)cc3)C2)c2ccncc2c1` [Compound 2.024, (S)-N-(1-(4-(cyclopropylthio)benzyl)pyrrolidin-3-yl)isoquinolin-5-amine] it is 8920 nM.

For `Cc1ccc(CN2CC[C@@H](Nc3cccc4cnccc34)C2)cc1` [Compound 2.025, (R)-N-(1-(4-methylbenzyl)pyrrolidin-3-yl)isoquinolin-5-amine], the IC50 came out at 29.9 nM. This IC50 lies about 300-fold lower than the previous one.

As to `Clc1ccc(CN2CC[C@@H](Nc3cccc4cnccc34)C2)cc1` [Compound 2.027, (R)-N-(1-(4-chlorobenzyl)pyrrolidin-3-yl)isoquinolin-5-amine], the IC50 was determined as 120 nM.

Compound `Cc1ccc(CN2CC[C@H](Nc3cccc4cnccc34)C2)cc1` [Compound 2.028, (S)-N-(1-(4-methylbenzyl)pyrrolidin-3-yl)isoquinolin-5-amine] returned a half-maximal inhibitory concentration (IC50) of 789 nM. The figure for `CSc1ccc(CN2CC[C@H](Nc3cccc4cnccc34)C2)cc1` [Compound 2.029, (S)-N-(1-(4-(methylthio)benzyl)pyrrolidin-3-yl)isoquinolin-5-amine] is 3140 nM; for `Clc1ccc(CN2CC[C@H](Nc3cccc4cnccc34)C2)cc1` [Compound 2.030, (S)-N-(1-(4-chlorobenzyl)pyrrolidin-3-yl)isoquinolin-5-amine] it is 2460 nM.

Compound `C#Cc1ccc(CN2CC[C@@H](Nc3cccc4cnccc34)C2)cc1` [Compound 2.031, (R)-N-(1-(4-ethynylbenzyl)pyrrolidin-3-yl)isoquinolin-5-amine] yielded an IC50 of 87.1 nM.

In turn, `OCCOc1cccc(CN2CC[C@H](Nc3cccc4cnccc34)C2)c1` [Compound 2.032, (S)-2-(3-((3-(isoquinolin-5-ylamino)pyrrolidin-1-yl)methyl)phenoxy)ethanol] showed an IC50 of 5330 nM.

Consider `CS(=O)(=O)Nc1cccc(CN2CCC[C@@H](Nc3cccc4cnccc34)C2)c1` [Compound 2.033, (R)-N-(3-((3-(isoquinolin-5-ylamino)piperidin-1-yl)methyl)phenyl)methanesulfonamide], for which the IC50 worked out at 3060 nM. Against the preceding compound, the IC50 is about 1.7-fold lower. The figure for `OCCOc1cccc(CN2CCC[C@@H](Nc3cccc4cnccc34)C2)c1` [Compound 2.034, (R)-2-(3-((3-(isoquinolin-5-ylamino)piperidin-1-yl)methyl)phenoxy)ethanol] is 4010 nM. With `CS(=O)(=O)Nc1cccc(CN2CC[C@H](Nc3cccc4cnccc34)C2)c1` [Compound 2.035, (S)-N-(3-((3-(isoquinolin-5-ylamino)pyrrolidin-1-yl)methyl)phenyl)methanesulfonamide] the figure was 3240 nM; with `OCCOc1cccc(CN2CCC[C@H](Nc3cccc4cnccc34)C2)c1` [Compound 2.036, (S)-2-(3-((3-(isoquinolin-5-ylamino)piperidin-1-yl)methyl)phenoxy)ethanol], 160 nM; with `CS(=O)(=O)Nc1cccc(CN2CCC[C@H](Nc3cccc4cnccc34)C2)c1` [Compound 2.037, (S)-N-(3-((3-(isoquinolin-5-ylamino)piperidin-1-yl)methyl)phenyl)methanesulfonamide], 3060 nM.

`CS(=O)(=O)Nc1cccc(CN2CC[C@@H](Nc3cccc4cnccc34)C2)c1` [Compound 2.038, (R)-N-(3-((3-(isoquinolin-5-ylamino)pyrrolidin-1-yl)methyl)phenyl)methanesulfonamide] returned an IC50 of 112 nM. Compared with the last compound, the IC50 is about 27-fold lower. In turn, `OCCOc1cccc(CN2CC[C@@H](Nc3cccc4cnccc34)C2)c1` [Compound 2.039, (R)-2-(3-((3-(isoquinolin-5-ylamino)pyrrolidin-1-yl)methyl)phenoxy)ethanol] returned an IC50 of 101 nM. With `NC(=O)COc1cccc(CN2CC[C@@H](Nc3cccc4cnccc34)C2)c1` [Compound 2.040, (R)-2-(3-((3-(isoquinolin-5-ylamino)pyrrolidin-1-yl)methyl)phenoxy)acetamide] the figure was 273 nM; with `CCS(=O)(=O)Nc1cccc(CN2CC[C@@H](Nc3cccc4cnccc34)C2)c1` [Compound 2.041, (R)-N-(3-((3-(isoquinolin-5-ylamino)pyrrolidin-1-yl)methyl)phenyl)ethanesulfonamide], 168 nM.

For the origin of these results see patent publication US8604218B2, “Cytoskeletal active rho kinase inhibitor compounds, composition and use” (Inspire Pharmaceuticals, Inc., priority 2006, dated 2013).
